Test results taken from patent publication US11306087B2, “Inhibitors of KRAS G12C and methods of using the same” (Amgen Inc., priority 2017, dated 2022).

What was measured:
[1] = biological target: GDP-bound KRAS protein (aa 1-169), containing both G12C and C118A amino acid substitutions (Homo sapiens (Human), UniProt P01116, C118A/G12C); assay: Coupled Nucleotide Exchange Assay; assay type: biochemical; details: 5 min compound pre-incubation; inhibition of SOS-mediated nucleotide exchange; AlphaScreen
Procedure: For compounds in Table 2, the following assay conditions were employed: Coupled Nucleotide Exchange Assay: Purified GDP-bound KRAS protein (aa 1-169), containing both G12C and C118A amino acid substitutions and an N-terminal His-tag, was pre-incubated with a compound dose-response titration for 5 min in assay buffer (25 mM HEPES pH 7.4, 10 mM MgCl2, and 0.01% Triton X-100). Following compound pre-incubation, purified SOS protein (aa 564-1049) and GTP (Roche 10106399001) were added to the assay wells and incubated for an additional 30 min. To determine the extent of inhibition of SOS-mediated nucleotide exchange, purified GST-tagged cRAF (aa 1-149), nickel chelate AlphaLISA acceptor beads (PerkinElmer AL108R), and AlphaScreen glutathione donor beads (PerkinElmer 6765302) were added to the assay wells and incubated for 5 minutes. The assay plates were then read on a PerkinElmer EnVision Multilabel Reader, using AlphaScreen® technology, and data were analyzed using a 4-parameter logistic model to calculate IC50 values.

[2] = tested on: Phosphorylation of ERK1/2 in MIA PaCa-2 cells; assay: Phospho-ERK1/2 MSD Assay; assay type: cell-based; details: Homo sapiens, 2 hours compound treatment, 10 ng/mL EGF for 10 min, read-out: p-ERK IC50 (MIA PaCa-2)
Procedure: Phospho-ERK1/2 MSD Assay: MIA PaCa-2 (ATCC® CRL-1420™) and A549 (ATCC® CCL-185™) cells were cultured in RPMI 1640 Medium (ThermoFisher Scientific 11875093) containing 10% fetal bovine serum (ThermoFisher Scientific 16000044) and 1× penicillin-streptomycin-glutamine (ThermoFisher Scientific 10378016). Sixteen hours prior to compound treatment, MIA PaCa-2 or A549 cells were seeded in 96-well cell culture plates at a density of 25,000 cells/well and incubated at 37° C., 5% CO2. A compound dose-response titration was diluted in growth media, added to appropriate wells of a cell culture plate, and then incubated at 37° C., 5% CO2 for 2 hours. Following compound treatment, cells were stimulated with 10 ng/mL EGF (Roche 11376454001) for 10 min, washed with ice-cold Dulbecco's phosphate-buffered saline, no Ca^2+ or Mg^2+ (ThermoFisher Scientific 14190144), and then lysed in RIPA buffer (50 mM Tris-HCl pH 7.5, 1% Igepal, 0.5% sodium deoxycholate, 150 mM NaCl, and 0.5% sodium dodecyl sulfate) containing protease inhibitors (Roche 4693132001) and phosphatase inhibitors (Roche 4906837001). Phosphorylation of ERK1/2 in compound-treated lysates was assayed using Phospho-ERK1/2 Whole Cell Lysate kits (Meso Scale Discovery K151DWD) according to the manufacturer's protocol. Assay plates were read on a Meso Scale Discovery Sector Imager 6000, and data were analyzed using a 4-parameter logistic model to calculate IC50 values.

GDP-bound KRAS protein (aa 1-169), containing both G12C and C118A amino acid substitutions, sequence (P01116 other isoform, or with tags, fused parts or gaps G12C/C118A): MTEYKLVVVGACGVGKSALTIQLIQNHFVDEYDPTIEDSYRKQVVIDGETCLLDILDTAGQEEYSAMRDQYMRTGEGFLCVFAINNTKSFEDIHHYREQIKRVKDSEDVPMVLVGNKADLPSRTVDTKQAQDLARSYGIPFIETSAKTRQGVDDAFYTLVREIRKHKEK

How did the IC50 [1] turn out when `C=CC(=O)N1C[C@H](C)N(c2nc(=O)n(-c3c(C)ccnc3C(C)C)c3nc(-c4ccccc4F)c(F)cc23)C[C@H]1C` [Example 4, 4-((2S,5R,M)-4-Acryloyl-2,5-dimethylpiperazin-1-yl)-6-fluoro-7-(2-fluorophenyl)-1-(2-isopropyl-4-methylpyridin-3-yl)pyrido[2,3-d]pyrimidin-2(1H)-one] was run?
The IC50 was 206 nM.

What about the IC50 [2] of the same compound?
Its IC50 is 102 nM.

`C=CC(=O)N1C[C@H](C)N(c2nc(=O)n(-c3c(C(C)C)ncnc3C(C)C)c3nc(-c4c(O)cccc4F)c(F)cc23)C[C@H]1C` [Example 11, 4-((2S,5R)-4-Acryloyl-2,5-dimethylpiperazin-1-yl)-1-(4,6-diisopropylpyrimidin-5-yl)-6-fluoro-7-(2-fluoro-6-hydroxyphenyl)pyrido[2,3-d]pyrimidin-2(1H)-one] was tested. Which IC50 [1] did it give?
Its IC50 is 136 nM.

And the IC50 [2]?
The IC50 was 103 nM.

How did the IC50 [1] turn out when `C=CC(=O)N1C[C@H](C)N(c2nc(=O)n(-c3c(C(C)C)ncnc3C(C)C)c3nc(-c4c(N)cccc4F)c(Cl)cc23)C[C@H]1C` [Example 9, 4-((2S,5R)-4-Acryloyl-2,5-dimethylpiperazin-1-yl)-7-(2-amino-6-fluorophenyl)-6-chloro-1-(4,6-diisopropylpyrimidin-5-yl)pyrido[2,3-d]pyrimidin-2(1H)-one] was run?
Its IC50 is 54 nM.

And the IC50 [2]?
The IC50 was 21 nM.

For `C=CC(=O)N1[C@H](C)CN(c2nc(=O)n(-c3c(C(C)C)ncnc3C(C)C)c3nc(-c4c(O)cccc4F)c(Cl)cc23)C[C@@H]1C` [Example 20, 4-(4-Acryloyl-cis-3,5-dimethylpiperazin-1-yl)-6-chloro-1-(4,6-diisopropylpyrimidin-5-yl)-7-(2-fluoro-6-hydroxyphenyl)pyrido[2,3-d]pyrimidin-2(1H)-one], which IC50 [1] is on record?
Its IC50 is 34 nM.

What about the IC50 [2] of the same compound?
Its IC50 is 22 nM.

With `C=CC(=O)N1[C@H](C)CN(c2nc(=O)n(-c3c(C)ccnc3C(C)C)c3nc(-c4c(N)cccc4F)c(F)cc23)C[C@@H]1C` (atropisomer, axis not shown; (M)) [Example 18, (M)-4-(4-Acryloyl-cis-3,5-dimethylpiperazin-1-yl)-7-(2-amino-6-fluorophenyl)-6-fluoro-1-(2-isopropyl-4-methylpyridin-3-yl)pyrido[2,3-d]pyrimidin-2(1H)-one] as the compound, how does the IC50 [1] read?
The IC50 was 69 nM.

And the IC50 [2]?
The IC50 was 75 nM.

With `C=CC(=O)N1C[C@H](C)N(c2nc(=O)n(-c3c(C)ccnc3C(C)C)c3nc(-c4c(N)cccc4F)c(Cl)cc23)C[C@H]1C` [Example 3, 4-((2S,5R,M)-4-Acryloyl-2,5-dimethylpiperazin-1-yl)-7-(2-amino-6-fluorophenyl)-6-chloro-1-(2-isopropyl-4-methylpyridin-3-yl)pyrido[2,3-d]pyrimidin-2(1H)-one] as the compound, how does the IC50 [1] read?
Its IC50 is 13 nM.

What about the IC50 [2] of the same compound?
The IC50 was 9 nM.

`C=CC(=O)N1C[C@H](C)N(c2nc(=O)n(-c3c(C(C)C)ncnc3C(C)C)c3nc(-c4c(N)cccc4F)c(F)cc23)C[C@H]1C` [Example 12, 4-((2S,5R)-4-Acryloyl-2,5-dimethylpiperazin-1-yl)-7-(2-amino-6-fluorophenyl)-1-(4,6-diisopropylpyrimidin-5-yl)-6-fluoropyrido[2,3-d]pyrimidin-2(1H)-one] was tested. Which IC50 [1] did it give?
Its IC50 is 214 nM.

And the IC50 [2]?
Its IC50 is 88 nM.

Which IC50 [2] does the source give for `C=CC(=O)N1[C@H](C)CN(c2nc(=O)n(-c3c(C)ccnc3C(C)C)c3nc(-c4c(N)cccc4F)c(Cl)cc23)C[C@@H]1C` (atropisomer, axis not shown; (M)) [Example 15, (M)-4-(4-Acryloyl-cis-3,5-dimethylpiperazin-1-yl)-7-(2-amino-6-fluorophenyl)-6-chloro-1-(2-isopropyl-4-methylpyridin-3-yl)pyrido[2,3-d]pyrimidin-2(1H)-one] here?
Its IC50 is 15 nM.

Which results are given for `C=CC(=O)N1[C@H](C)CN(c2nc(=O)n(-c3c(C(C)C)ncnc3C(C)C)c3nc(-c4c(O)cccc4F)c(F)cc23)C[C@@H]1C` [Example 23, 4-(4-Acryloyl-cis-3,5-dimethylpiperazin-1-yl)-1-(4,6-diisopropylpyrimidin-5-yl)-6-fluoro-7-(2-fluoro-6-hydroxyphenyl)pyrido[2,3-d]pyrimidin-2(1H)-one]?
IC50 [1]: 173 nM; IC50 [2]: 132 nM

With `C=CC(=O)N1[C@H](C)CN(c2nc(=O)n(-c3c(C)ccnc3C(C)C)c3nc(-c4ccccc4F)c(F)cc23)C[C@@H]1C` (atropisomer, axis not shown; (M)) [Example 16, (M)-4-(4-Acryloyl-cis-3,5-dimethylpiperazin-1-yl)-6-fluoro-7-(2-fluorophenyl)-1-(2-isopropyl-4-methylpyridin-3-yl)pyrido[2,3-d]pyrimidin-2(1H)-one] as the compound, how does the IC50 [1] read?
Its IC50 is 512 nM.

For `C=CC(=O)N1C[C@H](C)N(c2nc(=O)n(-c3c(C)ccnc3C(C)C)c3nc(-c4ccccc4F)c(Cl)cc23)C[C@H]1C` [Example 1, 4-((2S,5R,M)-4-Acryloyl-2,5-dimethylpiperazin-1-yl)-6-chloro-7-(2-fluorophenyl)-1-(2-isopropyl-4-methylpyridin-3-yl)pyrido[2,3-d]pyrimidin-2(1H)-one], which IC50 [1] is on record?
The IC50 was 40 nM.

What about the IC50 [2] of the same compound?
Its IC50 is 26 nM.

Which results are given for `C=CC(=O)N1[C@H](C)CN(c2nc(=O)n(-c3c(C)ccnc3C(C)C)c3nc(-c4ccccc4F)c(Cl)cc23)C[C@@H]1C` (atropisomer, axis not shown; (M)) [Example 13, (M)-4-(4-Acryloyl-cis-3,5-dimethylpiperazin-1-yl)-6-chloro-7-(2-fluorophenyl)-1-(2-isopropyl-4-methylpyridin-3-yl)pyrido[2,3-d]pyrimidin-2(1H)-one]?
IC50 [1]: 53 nM; IC50 [2]: 46 nM

What does the source list for `C=CC(=O)N1[C@H](C)CN(c2nc(=O)n(-c3c(C)ccnc3C(C)C)c3nc(-c4c(O)cccc4F)c(F)cc23)C[C@@H]1C` (atropisomer, axis not shown; (M)) [Example 17, (M)-4-(4-Acryloyl-cis-3,5-dimethylpiperazin-1-yl)-6-fluoro-7-(2-fluoro-6-hydroxyphenyl)-1-(2-isopropyl-4-methylpyridin-3-yl)pyrido[2,3-d]pyrimidin-2(1H)-one]?
IC50 [1]: 117 nM; IC50 [2]: 105 nM

With `C=CC(=O)N1C[C@H](C)N(c2nc(=O)n(-c3c(C(C)C)ncnc3C(C)C)c3nc(-c4ccccc4F)c(Cl)cc23)C[C@H]1C` [Example 7, 4-((2S,5R)-4-Acryloyl-2,5-dimethylpiperazin-1-yl)-6-chloro-1-(4,6-diisopropylpyrimidin-5-yl)-7-(2-fluorophenyl)pyrido[2,3-d]pyrimidin-2(1H)-one] as the compound, how does the IC50 [1] read?
Its IC50 is 49 nM.

What about the IC50 [2] of the same compound?
Its IC50 is 26 nM.

`C=CC(=O)N1[C@H](C)CN(c2nc(=O)n(-c3c(C(C)C)ncnc3C(C)C)c3nc(-c4c(N)cccc4F)c(F)cc23)C[C@@H]1C` [Example 24, 4-(4-Acryloyl-cis-3,5-dimethylpiperazin-1-yl)-7-(2-amino-6-fluorophenyl)-1-(4,6-diisopropylpyrimidin-5-yl)-6-fluoropyrido[2,3-d]pyrimidin-2(1H)-one] was tested. Which IC50 [1] did it give?
Its IC50 is 396 nM.

For `C=CC(=O)N1[C@H](C)CN(c2nc(=O)n(-c3c(C(C)C)ncnc3C(C)C)c3nc(-c4ccccc4F)c(Cl)cc23)C[C@@H]1C` [Example 19, 4-(4-Acryloyl-cis-3,5-dimethylpiperazin-1-yl)-6-chloro-1-(4,6-diisopropylpyrimidin-5-yl)-7-(2-fluorophenyl)pyrido[2,3-d]pyrimidin-2(1H)-one], which IC50 [1] is on record?
The IC50 was 42 nM.

What about the IC50 [2] of the same compound?
Its IC50 is 61 nM.

With `C=CC(=O)N1[C@H](C)CN(c2nc(=O)n(-c3c(C(C)C)ncnc3C(C)C)c3nc(-c4ccccc4F)c(F)cc23)C[C@@H]1C` [Example 22, 4-(4-Acryloyl-cis-3,5-dimethylpiperazin-1-yl)-1-(4,6-diisopropylpyrimidin-5-yl)-6-fluoro-7-(2-fluorophenyl)pyrido[2,3-d]pyrimidin-2(1H)-one] as the compound, how does the IC50 [1] read?
Its IC50 is 560 nM.
